One may read the solubility as how much of the substance goes into solution per volume.

A short description of series [1]: solubility in water at 22° C. The series is classed as physicochemical.
The next series has as its system mice. Briefly: LD50 toxicity measurement on mice, i.p., eight days after a single application. The series is classed as in vivo. To be noted: calculated by method of Litchfield. Here is the method: The LD50, i.p. values (μmole/1) were determined by toxicity measurements on mice, eight days after a single application. The LD50 values were calculated by the method of J. P. Litchfield et al., J. Pharmacol. exp. Ther. 96, 99 (1949).

Series [2] has as its system isolated auricle of guinea pigs. In words: measurement in the isolated auricle (functional refractory period and contraction force), modified method of Govier. To be noted: Cavia porcellus, on the average; for EC (125% of initial value): read-out: FRP: concentration at which the functional refractory period is extended to 125% of the initial values; for IC25: read-out: Force: concentration at which the contraction force is reduced to 75% of the initial values. Here is the method: These values were determined by measurements in the isolated auricle of guinea pigs by the method (modified) of Govier, as described by Govier in J. Pharmacol. exp.

The nature of series [3]: hygroscopicity of crystalline salts. The series is classed as physicochemical.
The nature of series [4]: stability tests (storage at 55° C.; exposure to light) with thin layer chromatography. The format is physicochemical. To be noted: salts. Here is the method: In stability tests, no dissociation was found in thin layer chromatographic investigations. One test included storage for one month at 55° C. and as a second test utilized exposure to light (30 hours, rapid light exposure instrument "SUNTEST," Heraeus Co.).

The subject of a further series is humans. To be noted: application to humans; cited from earlier work.

The structures appear in SMILES notation. In brackets after ≈: the same amount, converted by molar mass. Counter-ions that a name gives are not always drawn.

Take `CCCCCC1C2CC(CN3CCCCC23)C2CCCCN21` (single isomer, unassigned) [acidiferous 17-β-n-pentyl sparteine-L(+) tartrate]: the solubility in series [1] is > 1000 mg/mL. The LD50 i.p. in the series on mice was 262 μmole/1. For the same compound, in series [2], the EC (125% of initial value) worked out at 9.1 µM and the IC25 turned out to be 22.1 µM.
Take `CCCCCC1C2CC(CN3CCCCC23)C2CCCCN21` (stereo not shown) [Example 11]: the “hygroscopicity” value in series [3] was “very rapidly dissolved”.
As to `CCCCCC1C2CC(CN3CCCCC23)C2CCCCN21` (stereo not drawn) [Pentylsparteine diperchlorate, perchlorate of 17-β-n-pentyl sparteine], in series [4], the “stability” value was “stable salt”. Moreover, the “toxicity in humans” value in the series with humans is “leukopenia, agranulocytosis and aplastic anemia”. The solubility in series [1] came out at 20 mg/mL (≈ 65.7 mM). For the same compound, in the series with mice, the LD50 i.p. is given as 283 μmole/1. In series [2], the EC (125% of initial value) turned out to be 7.7 µM and the IC25 turned out to be 19.2 µM.
With `C1CCN2C[C@@H]3C[C@@H](CN4CCCC[C@@H]34)[C@H]2C1` [Sparteine Sulfate, sparteine sulfate], the LD50 i.p. in the series on mice is listed as 202 μmole/1. Also, in series [2], the EC (125% of initial value) came out at 33.9 µM and the IC25 was 959 µM.
Turning to `CCCCCC1C2CC(CN3CCCCC23)C2CCCCN21` (stereo not drawn) [hydrochloride of 17-β-n-pentyl sparteine], the “hygroscopicity” value in series [3] is “extremely hydroscopic”.
On to `CCCCCC1C2CC(CN3CCCCC23)C2CCCCN21` (stereo not drawn) [sulfate of 17-β-n-pentyl sparteine], for which the “hygroscopicity” value in series [3] is reported as “extremely hydroscopic”.

The values are drawn from patent US4451468A, “Acidiferous 17-normal-pentyl sparteine tartaric and fumaric acid salts pharmaceutical compositions thereof” (Kali-Chemie Pharma GmbH, priority 1979, dated 1984).
